From US6723733B2, “Sulfonamide and carbamide derivatives of 6(5H)phenanthridinones and their uses” (Guilford Pharmaceuticals, Inc., priority 2000, dated 2004)

Tests used:
rabbits = conditions: cited from earlier work
Swiss albino mice = assay: MSU crystal-induced neutrophil recruitment (gout model, peritonitis); assay type: in vivo, mouse; conditions: 45 mg/kg i.p.
Experimental: Male outbread Swiss albino mice (20-22 g body weight) were purchased from Banton and Kingsman (T.O. strain; Hull, Humberside) and maintained on a standard chow pellet diet with tap water ad libitum and a 12:00 h light/dark cycle. All animals were housed for 1 week prior to experimentation to allow body weight to reach 28-30 g.
1,1,1lb-dihydrobenzopyrano[4,3,2-de]isoquinolin-1-one was dissolved in 100% DMSO at room temperature at a concentration of 45 mg in 2 ml. The compound was then injected into the peritoneal cavity, so as each mouse received a single dose corresponding to 45 mg/2 ml/kg (e.g. 60 μl for a mouse of 30 g). […]
MSU crystal-induced neutrophil recruitment was tested as follows. […] Peritonitis was induced by injection of 3 mg MSU crystals in 0.5 ml PBS (0.1 M, pH 7.4), and the recruitment of neutrophils into the cavity evaluated at the 6 h time point (Getting et al., 1997, J. Pharmacol. Exp. Ther. 283: 123-130). […]
An aliquot (100 μl) of the lavage fluid was then diluted 1:10 in Turk's solution (0.01% crystal violet in 3% acetic acid). The samples were then vortexed and 10 μl of the stained cell solution were placed in a Neubauer haematocymometer and neutrophils numbers counted using a light microscope (Olympus B061). […]
Data are shown for single mice, and also shown as mean±S.E. of (n) mice per group. Statistical differences were determined by ANOVA, plus Bonferroni test. […]

male Long-Evans rats = assay: Focal cerebral ischemia (MCA cauterization with temporary bilateral CCA occlusion); assay type: in vivo, rat; conditions: 24 h, mean±SD
Experimental: Focal cerebral ischemia is produced by cauterization of the right distal MCA (middle cerebral artery) with bilateral temporary common carotid artery occlusion in male Long-Evans rats for 90 minutes. All procedures performed on the animals are approved by the University Institutional Animal Care and Use Committee of the University of Pennsylvania. A total of 42 rats (weights: 230-340 g) obtained from Charles River were used in this study. The animals fasted overnight with free access to water prior to the surgical procedure
Two hours prior to MCA occlusion, varying amounts (control, n=14; 5 mg/kg, n=7; 10 mg/kg, n=7; 20 mg/kg, n=7; and 40 mg/kg, n=7) of the compound, 3,4-dihydro-5-[4-(1-piperidinyl)-butoxy]-1(2H)-isoquinolinone (“DPQ”) were dissolved in dimethyl sulfoxide (DMSO) using a sonicator. A volume of 1.28 ml/kg of the resulting solution was injected intraperitoneally into […].
The rats were then anesthetized with halothane (4% for induction and 0.8%-1.2% for the surgical procedure) in a mixture of 70% nitrous oxide and 30% oxygen. The body temperature was monitored by a rectal probe and maintained at 37.5±0.5° C. with a heating blanket regulated by a homeothermic blanket control unit (Harvard Apparatus Limited, Kent, U.K.). A catheter (PE-50) was placed into the tail artery, and arterial pressure was continuously monitored and recorded on a Grass polygraph recorder (Model 7D, Grass Instruments, Quincy, Mass.). Samples for blood gas analysis (arterial pH, PaO2 and PaCO2) were also taken from the tail artery catheter and measured with a blood gas analyzer (ABL 30, Radiometer, Copenhagen, Denmark). Arterial blood samples were obtained 30 minutes after MCA occlusion.
The head of the animal was positioned in a stereotaxic frame, and a right parietal incision between the right lateral canthus and the external auditory meatus was made. Using a dental drill constantly cooled with saline, a 3 mm burr hole was prepared over the cortex supplied by the right MCA, 4 mm lateral to the sagittal suture and 5 mm caudal to the coronal suture. The dura mater and a thin inner bone layer were kept, care being taken to position the probe over a tissue area devoid of large blood vessels. The flow probe (tip diameter of 1 mm, fiber separation of 0.25 mm) was lowered to the bottom of the cranial burr hole using a micromanipulator. The probe was held stationary by a probe holder secured to the skull with dental cement. The microvascular blood flow in the right parietal cortex was continuously monitored with a laser Doppler flowmeter (FloLab, Moor, Devon, U.K., and Periflux 4001, Perimed, Stockholm, Sweden). […]

Q: Which “reduction in infarct size in the heart” value (rabbits; single injection 10 mg/kg, one minute before occlusion or before reperfusion) does the source give for `NC(=O)c1cccc(N)c1` [3-amino-benzamide] here?
A: Its value is 32-42%.

Q: What does the source list for `O=C1N=Cc2cccc3c2C1c1ccccc1O3` (centres unmarked) [1,11b-dihydrobenzopyrano[4,3,2-de]isoquinolin-1-one]?
A: inhibition of cell influx vs. the vehicle group (Swiss albino mice; 6 h after MSU crystals): 55%; Neutrophils (10^6 per mouse), mean ± S.E. (Swiss albino mice; group C, MSU crystals (3 mg), 6 h, n=8, P < 0.05 vs. vehicle group B (6.30 ± 0.33)): 2.85 ± 0.34 (8) * 10^6 per mouse

Q: Which “reduction in infarct size” value (rabbits; single injection 1 mg/kg) does the source give for `Oc1cccc2c(O)nccc12` [1,5-dihydroxyisoquinoline] here?
A: Its value is 38-48%.

Q: Which results are given for `O=C1NCCc2c(OCCCCN3CCCCC3)cccc21` [DPQ, 3,4-dihydro-5-[4-(1-piperidinyl)-butoxy]-1(2H)-isoquinolinone]?
A: damaged volume (total volume of infarction) (male Long-Evans rats; 5 mg/kg i.p. 2 h before and 2 h after MCA occlusion, control 165.2±34.0, p<0.001): 106.7±23.2 mm^3; damaged volume (total volume of infarction) (male Long-Evans rats; 10 mg/kg i.p. 2 h before and 2 h after MCA occlusion, control 165.2±34.0 mm^3, p<0.001): 76.4±16.8 mm; damaged volume (total volume of infarction) (male Long-Evans rats; 20 mg/kg i.p. 2 h before and 2 h after MCA occlusion, control 165.2±34.0, p<0.01): 110.2±42.0 mm^3; damaged volume (total volume of infarction) (male Long-Evans rats; 40 mg/kg i.p. 2 h before and 2 h after MCA occlusion, no significant difference from control 165.2±34.0): 135.6±44.8 mm^3
